Laboratory results taken from article PMC9671100 (RSC Advances, 2022).
“And” between values parts separate entries of the source, which are not always exact repeats. Equal entries are not always repeated.

Assays:
[1] = target: AChE (from Electrophorus electricus) (Electrophorus electricus, UniProt O42275); experiment: Anticholinesterase assay; format: biochemical
[2] = target: BChE (from equine serum) (Equus caballus, UniProt P81908); experiment: Anticholinesterase assay; format: biochemical; conditions: for IC50: BChE IC50, IC50 ± SEM, Ellman method, 30 min incubation, triplicate
[3] = DPPH radical scavenging activity; conditions: 517 nm, 5 min at room temperature
[4] = ABTS radical scavenging activity; conditions: for ABTS EC50: 732 nm, 6 min; for Fold = IC50 of ascorbic acid/IC50 of compounds 5a–p: ratio of the ABTS values relative to ascorbic acid

Chain of AChE (from Electrophorus electricus) (O42275 24-633): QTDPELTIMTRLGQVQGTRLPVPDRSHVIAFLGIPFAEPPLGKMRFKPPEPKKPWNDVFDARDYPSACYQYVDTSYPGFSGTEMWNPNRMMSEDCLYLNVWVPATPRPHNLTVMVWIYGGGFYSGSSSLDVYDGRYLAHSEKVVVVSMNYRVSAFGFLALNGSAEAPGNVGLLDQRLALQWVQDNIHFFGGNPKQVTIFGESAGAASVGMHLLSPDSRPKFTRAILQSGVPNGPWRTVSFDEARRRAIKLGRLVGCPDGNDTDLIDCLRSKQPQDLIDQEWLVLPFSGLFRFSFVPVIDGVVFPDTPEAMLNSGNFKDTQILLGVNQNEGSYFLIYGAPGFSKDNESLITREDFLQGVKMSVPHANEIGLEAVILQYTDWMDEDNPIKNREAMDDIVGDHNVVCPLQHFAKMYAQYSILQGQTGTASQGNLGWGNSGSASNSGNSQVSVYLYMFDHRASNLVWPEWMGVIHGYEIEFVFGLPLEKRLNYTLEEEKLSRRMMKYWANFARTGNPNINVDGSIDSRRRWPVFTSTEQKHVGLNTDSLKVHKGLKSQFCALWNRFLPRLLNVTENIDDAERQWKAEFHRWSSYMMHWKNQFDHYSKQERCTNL
Chain of BChE (from equine serum) (P81908 whole entry): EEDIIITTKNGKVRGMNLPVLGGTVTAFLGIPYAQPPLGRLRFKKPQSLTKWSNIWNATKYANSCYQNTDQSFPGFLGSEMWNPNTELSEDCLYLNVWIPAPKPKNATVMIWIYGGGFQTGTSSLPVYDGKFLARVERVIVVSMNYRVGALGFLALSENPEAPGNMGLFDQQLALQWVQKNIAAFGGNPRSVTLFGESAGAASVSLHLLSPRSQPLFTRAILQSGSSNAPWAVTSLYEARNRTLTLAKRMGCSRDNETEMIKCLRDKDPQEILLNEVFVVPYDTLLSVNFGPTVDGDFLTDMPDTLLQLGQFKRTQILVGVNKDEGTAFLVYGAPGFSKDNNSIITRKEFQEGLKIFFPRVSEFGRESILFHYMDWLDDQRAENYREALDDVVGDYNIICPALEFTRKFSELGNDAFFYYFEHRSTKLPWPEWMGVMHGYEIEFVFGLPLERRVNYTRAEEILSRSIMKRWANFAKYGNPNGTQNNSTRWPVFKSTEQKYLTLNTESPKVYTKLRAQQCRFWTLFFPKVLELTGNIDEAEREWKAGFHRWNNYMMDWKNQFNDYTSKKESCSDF

Structure (SMILES) | IC50 [1] | IC50 [2] | DPPH EC50 [3] | ABTS EC50 [4] | Fold = IC50 of ascorbic acid/IC50 of compounds 5a–p [4] | times less potent than galantamine against BChE ([2]; IC50 ratio versus galantamine)
Cc1nn(-c2ccccc2)c2nc3c(cc12)-c1nc(N)c(C#N)c(-c2ccccc2)c1CC3 [5a, 2-Amino-10-methyl-4,8-diphenyl-6,8-dihydro-5H-pyrazolo[3,4-j][1,7]phenanthroline-3-carbonitrile] | 259.87 ± 0.03 µM | > 875 µM | >100 µg/mL | >100 µg/mL | – | –
Cc1ccc(-c2c(C#N)c(N)nc3c2CCc2nc4c(cc2-3)c(C)nn4-c2ccccc2)cc1 [5b, 2-Amino-10-methyl-8-phenyl-4-(p-tolyl)-6,8-dihydro-5H-pyrazolo[3,4-j][1,7]phenanthroline-3-carbonitrile] | – | > 847 µM | >100 µg/mL | 98.77 µg/mL | 0.28 | –
Cc1nn(-c2ccccc2)c2nc3c(cc12)-c1nc(N)c(C#N)c(-c2ccc(Cl)cc2)c1CC3 [5d, 2-Amino-4-(4-chlorophenyl)-10-methyl-8-phenyl-6,8-dihydro-5H-pyrazolo[3,4-j][1,7]phenanthroline-3-carbonitrile] | – | > 810 µM | >100 µg/mL | >100 µg/mL | – | –
Cc1nn(-c2ccccc2)c2nc3c(cc12)-c1nc(N)c(C#N)c(-c2ccc([N+](=O)[O-])cc2)c1CC3 [5e, 2-Amino-10-methyl-4-(4-nitrophenyl)-8-phenyl-6,8-dihydro-5H-pyrazolo[3,4-j][1,7]phenanthroline-3-carbonitrile] | 191.28 ± 0.015 µM | ≥ 375 µM | 26.71 µg/mL | 11.51 µg/mL | 2 and 2.40 | –
Cc1nn(-c2ccccc2)c2nc3c(cc12)-c1nc(N)c(C#N)c(-c2cc4ccccc4nc2Cl)c1CC3 [5f, 2-Amino-4-(2-chloroquinolin-3-yl)-10-methyl-8-phenyl-6,8-dihydro-5H-pyrazolo[3,4-j][1,7]phenanthroline-3-carbonitrile] | 135.33 ± 0.04 µM | ≥ 375 µM | >100 µg/mL | 3.10 µg/mL | 9 and 8.91 | –
Cc1nn(-c2ccccc2)c2nc3c(cc12)-c1nc(N)c(C#N)c(-c2ccc(O)cc2)c1CC3 [5g, 2-Amino-4-(4-hydroxyphenyl)-10-methyl-8-phenyl-6,8-dihydro-5H-pyrazolo[3,4-j][1,7]phenanthroline-3-carbonitrile] | – | – | >100 µg/mL | <3 µg/mL | more than nine times | –
Cc1nn(-c2ccccc2)c2nc3c(cc12)-c1nc(N)c(C#N)c(-c2ccc(C#N)cc2)c1CC3 [5h, 2-Amino-4-(4-cyanophenyl)-10-methyl-8-phenyl-6,8-dihydro-5H-pyrazolo[3,4-j][1,7]phenanthroline-3-carbonitrile] | 85.48 ± 0.14 µM | ≥ 375 µM | >100 µg/mL | >100 µg/mL | – | –
COc1cc(-c2c(C#N)c(N)nc3c2CCc2nc4c(cc2-3)c(C)nn4-c2ccccc2)cc(OC)c1OC [5j, 2-Amino-10-methyl-8-phenyl-4-(3,4,5-trimethoxyphenyl)-6,8-dihydro-5H-pyrazolo[3,4-j][1,7]phenanthroline-3-carbonitrile] | 224.54 ± 0.018 µM | ≥ 375 µM | >100 µg/mL | >100 µg/mL | – | –
Cc1nn(-c2ccccc2)c2nc3c(cc12)-c1nc(N)c(C#N)c(-c2ccc4c(c2)OCO4)c1CC3 [5l, 2-Amino-4-(benzo[d][1,3]dioxol-5-yl)-10-methyl-8-phenyl-6,8-dihydro-5H-pyrazolo[3,4-j][1,7]phenanthroline-3-carbonitrile] | 167.94 ± 0.04 µM | 119 µM | >100 µg/mL | >100 µg/mL | – | 15
CCOc1nc2c(c(-c3ccccc3)c1C#N)CCc1nc3c(cc1-2)c(C)nn3-c1ccccc1 [5p, 2-Ethoxy-10-methyl-4,8-diphenyl-6,8-dihydro-5H-pyrazolo[3,4-j][1,7]phenanthroline-3-carbonitrile] | 329.67 ± 0.01 µM | ≥ 375 µM | >100 µg/mL | >100 µg/mL | – | –
O=C1O[C@H]([C@@H](O)CO)C(O)=C1O [Ascorbic acid, reference compound] | – | – | 1.5 ± 0.2 µg/mL | 27.62 ± 3.5 µg/mL | 1 | –
